Source: patent publication US20120141479A1, “Histone Deacetylase Inhibitors Sensitize Cancer Cells To Epidermal Growth Factor Inhibitors” (priority 2007, published 2012)

What was measured:
[1] = system: FaDu head & neck cancer cell line; assay: Modified MTT growth inhibition assay; format: cell-based
Procedure: (§1) Combination administrations were performed as sequential treatments where the HDAC inhibitor was administer prior to the EGFR inhibitor, or simultaneous treatments in selected cell lines. Concentrations of HDAC inhibitors and EGFR inhibitors are indicated as μM concentrations in all experiments. SNDX275 was administered in three increasing concentrations, with a variety of ranges depending upon the cell line.
(§2) Drugs were diluted in fresh medium before each experiment, and the final DMSO concentration was <0.1%. Growth inhibition was assessed using a modified MTT assay. 2×10^3 cells were plated in each well of 96-well flat-bottomed microtiter plates and drugs were added the next day. […] The microtiter plates were incubated for 4 hours at 37° C. The visible absorbance of each well was measured using an automated plate reader (Molecular Devices, Sunnyvale, Calif.), and data were analyzed using SlideWrite to determine the drug IC50.

[2] = system: 1483 head & neck cancer cell line; assay: Modified MTT growth inhibition assay; format: cell-based; conditions: SNDX275 added as first drug
Procedure: as §1, §2

[3] = system: Panc04.03 pancreatic cancer cell line; assay: Modified MTT growth inhibition assay; format: cell-based; conditions: Panc 04.03
Procedure: as §1, §2

[4] = system: UMSCC19 head & neck cancer cell line; assay: Modified MTT growth inhibition assay; format: cell-based
Procedure: as §1, §2

[5] = system: Detroit562 head & neck cancer cell line; assay: Modified MTT growth inhibition assay; format: cell-based
Procedure: as §1, §2

[6] = system: HPAFII pancreatic cancer cell line; assay: Modified MTT growth inhibition assay; format: cell-based; conditions: SNDX275 added as first drug
Procedure: as §1, §2

[7] = system: MSK2922 head & neck cancer cell line; assay: Modified MTT growth inhibition assay; format: cell-based; conditions: SNDX275 added as first drug
Procedure: as §1, §2

[8] = system: UMSCC22B head & neck cancer cell line; assay: Modified MTT growth inhibition assay; format: cell-based
Procedure: as §1, §2

[9] = system: 584 head & neck cancer cell line; assay: Modified MTT growth inhibition assay; format: cell-based; conditions: SNDX275 added as first drug
Procedure: as §1, §2

[10] = system: Panc02.03 pancreatic cancer cell line; assay: Modified MTT growth inhibition assay; format: cell-based; conditions: Panc 02.03
Procedure: as §1, §2

[11] = system: Panc03.27 pancreatic cancer cell line; assay: Modified MTT growth inhibition assay; format: cell-based; conditions: Panc 03.27, both drugs added at the same time
Procedure: as §1, §2

[12] = system: HS766T pancreatic cancer cell line; assay: Modified MTT growth inhibition assay; format: cell-based
Procedure: as §1, §2

NSCLC patients = conditions: single agent, phase I studies including chemotherapy resistant NSCLC patients; cited from earlier work
H157 NSCLC cell line = assay: Apoptosis and cell death analysis; format: cell-based; conditions: 10 μM gefitinib
Procedure: (§3) The effect of gefitinib on inducing apoptosis and cell death in NSCLC cell lines sensitive and resistant to gefitinib was evaluated. […] Expression of E-cad was evaluated in these cell lines.

H520 NSCLC cell line = assay: Apoptosis and cell death analysis; format: cell-based; conditions: 10 μM gefitinib
Procedure: as §3

H460 NSCLC cell line = assay: Apoptosis and cell death analysis; format: cell-based; conditions: 10 μM gefitinib
Procedure: as §3

A549 NSCLC cell line = assay: Apoptosis and cell death analysis; format: cell-based; conditions: 10 μM gefitinib
Procedure: The effect of gefitinib on inducing apoptosis and cell death in NSCLC cell lines sensitive and resistant to gefitinib was evaluated. […].

E-cad = conditions: lung cancer cell lines; cited from earlier work
EGFR = EGFR phosphorylation in E-cad transfected H157 cell lines; format: cell-based; conditions: E-cad transfected H157 cell lines treated with EGF
Procedure: Cell Culture, Drugs and MTS assay. Twenty NSCLC cell lines were used: squamous (NCI-H157, HCC95, HCC15 and H441), large-cell (H460, H1299, H2126 and H1264, a derivative of H460), adeno (Calu3, A549, H2122, H1648, H520, HCC78, HCC193, H2009, HCC44 and H3255) and bronchioalveolar (H358 and H322). The NSCLC cell lines, HCC78, H2126, HCC95, H1299, HCC193, HCC44, HCC15, H2009 were obtained from UTSW and the H3255 was a gift from Dr. Bruce Johnson. All lines were cultured in RPMI medium 1640 under standard conditions. […] The drugs were diluted in fresh media before each experiment, and the final dimethyl sulfoxide concentration was <0.1%. […] Growth inhibition was assessed by MTS (3-(4,5-dimethylthiazol-2-yl)-5-(3-carboxymethoxyphenyl)-2-(4-sulfophenyl)2H-tetrazolium, inner salt) assay (Promega, Madison, Wis.). […] The absorbency of each well is measured using an automated plate reader. The data was analyzed using a SlideWrite program to determine the IC50 of the drug. […] After sonication, the Bradford assay was used for protein quantification. […]
The effect of E-cad on NSCLC cell lines apoptotic response to gefitinib was assessed by transfecting a gefitinib-resistant cell line, H157, with an E-cad-encoding adenovirus. […] Higher expression of E-cad was detected in the H157-E-cad-3 cell line compared to the H157-E-cad-3 cell line. […]

[13] = erlotinib 0.06 μM alone, SNDX275 added as first drug
[14] = erlotinib 0.06 μM alone, both drugs added at the same time
[15] = erlotinib 3.00 μM alone, SNDX275 added as first drug
[16] = erlotinib 3.00 μM alone, both drugs added at the same time
[17] = erlotinib 0.3 μM alone, SNDX275 added as first drug
[18] = erlotinib 0.3 μM alone, both drugs added at the same time
[19] = erlotinib 2.0 μM alone, SNDX275 added as first drug
[20] = erlotinib 2.0 μM alone, both drugs added at the same time
[21] = erlotinib 6.0 μM alone, SNDX275 added as first drug
[22] = erlotinib 6.0 μM alone, both drugs added at the same time
[23] = erlotinib 10.0 μM alone, both drugs added at the same time

C#Cc1cccc(Nc2ncnc3cc(OCCOC)c(OCCOC)cc23)c1 [erlotinib]
surviving [1, 13]: 83.931%
surviving [1, 14]: 98.703%
surviving ([1]; erlotinib 0.30 μM alone, SNDX275 added as first drug): 49.364%
surviving ([1]; erlotinib 0.30 μM alone, both drugs added at the same time): 55.823%
surviving [1, 15]: 24.489%
surviving [1, 16]: 27.463%
surviving ([2]; erlotinib 6.0 μM alone): 67.497%
surviving ([2]; erlotinib 8.0 μM alone): 52.894%
surviving ([2]; erlotinib 10.0 μM alone): 43.652%
surviving [3, 17]: 77.213%
surviving [3, 18]: 65.993%
surviving [3, 19]: 53.936%
surviving [3, 20]: 63.603%
surviving [3, 21]: 30.300%
surviving [3, 22]: 47.335%
surviving ([4]; erlotinib 0.03 μM alone, SNDX275 added as first drug (first table)): 70.495%
surviving ([4]; erlotinib 0.03 μM alone, SNDX275 added as first drug (second table)): 89.125%
surviving ([4]; erlotinib 2.00 μM alone, SNDX275 added as first drug (first table)): 40.636%
surviving ([4]; erlotinib 2.00 μM alone, SNDX275 added as first drug (second table)): 49.820%
surviving ([4]; erlotinib 6.00 μM alone, SNDX275 added as first drug (first table)): 22.618%
surviving ([4]; erlotinib 6.00 μM alone, SNDX275 added as first drug (second table)): 29.934%
surviving [5, 13]: 81.459%
surviving [5, 14]: 73.569%
surviving ([5]; erlotinib 0.60 μM alone, SNDX275 added as first drug): 56.459%
surviving ([5]; erlotinib 0.60 μM alone, both drugs added at the same time): 40.826%
surviving [5, 15]: 28.582%
surviving [5, 16]: 17.946%
surviving ([6]; erlotinib 0.03 μM alone): 79.346%
surviving ([6]; erlotinib 1.00 μM alone): 49.804%
surviving ([6]; erlotinib 6.00 μM alone): 28.170%
surviving ([7]; erlotinib 0.5 μM alone): 76.960%
surviving ([7]; erlotinib 5.0 μM alone): 49.683%
surviving ([7]; erlotinib 10.0 μM alone): 16.390%
surviving ([8]; erlotinib 3.0 μM alone, SNDX275 added as first drug): 79.839%
surviving ([8]; erlotinib 3.0 μM alone, both drugs added at the same time): 78.643%
surviving ([8]; erlotinib 7.0 μM alone, SNDX275 added as first drug): 53.060%
surviving ([8]; erlotinib 7.0 μM alone, both drugs added at the same time): 56.412%
surviving ([8]; erlotinib 10.0 μM alone, SNDX275 added as first drug): 29.839%
surviving [8, 23]: 49.762%
surviving ([9]; erlotinib 3.0 μM alone): 70.581%
surviving ([9]; erlotinib 7.0 μM alone): 49.941%
surviving ([9]; erlotinib 10.0 μM alone): 25.563%
surviving [10, 17]: 63.194%
surviving [10, 18]: 54.857%
surviving [10, 19]: 53.632%
surviving [10, 20]: 53.313%
surviving [10, 21]: 27.404%
surviving [10, 22]: 36.701%
surviving ([11]; erlotinib 0.03 μM alone): 73.670%
surviving ([11]; erlotinib 0.60 μM alone): 43.685%
surviving ([11]; erlotinib 6.00 μM alone): 19.177%
surviving ([12]; erlotinib 1.0 μM alone, SNDX275 added as first drug): 71.523%
surviving ([12]; erlotinib 1.0 μM alone, both drugs added at the same time): 77.921%
surviving [12, 21]: 49.547%
surviving [12, 22]: 46.785%
surviving [12, 23]: 37.138%
response rates (NSCLC patients): about 10%

COc1cc2ncnc(Nc3ccc(F)c(Cl)c3)c2cc1OCCCN1CCOCC1 [gefitinib]
apoptotic or necrotic effect (H157 NSCLC cell line): no apoptotic or necrotic effect
apoptotic or necrotic effect (H520 NSCLC cell line): no apoptotic or necrotic effect
apoptotic or necrotic effect (H460 NSCLC cell line): no apoptotic or necrotic effect
response rates (NSCLC patients): about 10%
apoptotic or necrotic effect (A549 NSCLC cell line): no apoptotic or necrotic effect

CC(/C=C/C(=O)NO)=C\[C@@H](C)C(=O)c1ccc(N(C)C)cc1 [trichostatin A]
effect of inhibiting HDAC on E-cad (E-cad): activation of E-cad

EGF: Epidermal growth factor purchased from R&D Systems Inc. (NSDSECPLSHDGYCLHDGVCMYIEALDKYACNCVVGYIGERCQYRDLKWWELR; Epidermal growth factor; UniProt P01133 971-1023, looked up)
increase in EGFR phosphorylation (EGFR): two fold increase
